US20050281821A1, “Method and composition for angiogenesis inhibition” (priority 1999, published 2005)

Columns and labels:
MDA-MB-435 tumor cells = assay: Orthotopic MDA-MB-435 human breast tumor model in mice; format: in vivo, female nude mice
Procedure: The effect of antibodies D93 and H8 in an orthotopic human breast tumor model was evaluated. MDA-MB-435 tumor cells (0.4×10^6 cells/mouse) in 50 μl PBS were orthotopically implanted in the mammary fat pad of female nude mice (five to six weeks old). When tumors reached a mean volume of approximately 50-80 mm^3, mice were randomized (at least 10/group) and intravenous treatment with D93 and H8 at 1 μg (0.05 mg/kg) per dose, 10 μg (0.5 mg/kg), 100 μg (5 mg/kg) or 200 μg (10 mg/kg), or 100 μg control antibody DP28 in 100 μl PBS, or vehicle PBS 100 μl twice per week was initiated; in some studies, an untreated group was also evaluated.
Tumor sizes were measured every 7-20 days starting at the first day of treament and continued until day 50-80 post-treatment. Tumor length (L) and width (W) were measured with calipers and tumor volumes were calculated using the formula: (L×W^2)/2 where L was the length of the tumor or the largest diameter, and W was the width or shortest diameter. Animals were euthanized at the end of the study and final tumor measurements were recorded.
The effect of combination treatment of D93 with Taxol was evaluated for eight weeks in the orthotopic MDA-MB-435 human breast tumor model in mice. MDA-MB-435 tumor cells were implanted into female nude mice as described in Example 20. Animals were randomized into seven treatment groups (n=12-13/group) with mean tumor volume 78 mm^3. D93 was administered at 100 μg/dose (5 mg/kg) twice weekly. Taxol was administered intraperitoneally at 3 or 6 mg/kg q.w. A vehicle control group of animals received PBS twice weekly and HBSS once weekly. Another control group received DP28 control antibody, administered at 100 μg/dose, twice weekly. Treatments with D93 and Taxol, as well as controls, were initiated on the same day (Day 1).
Tumor sizes were measured every 7 days starting at the first day of treatment and continued until day 55 post-treatment. Measurements were recorded as (L×W^2)/2 where L is the length of the tumor or the largest diameter, and W is the width or shortest diameter. Animals were euthanized at the end of the study and the final measurements were recorded.
In a study similar to that described in Example 21, Taxol was administered intraperitoneally at 6 or 10 mg/kg q.w. Animals were treated for 51 days.

[1] = tested on: MX-1 human breast carcinoma cells; assay: Non-orthotopic MX-1 human breast tumor model; format: in vivo, SCID mice
Procedure: A study was performed in the staged subcutaneous (non-orthotopic) MX-1 breast tumor model. Female, 7 week-old, SCID mice were injected in the dorsal right flank with 0.75×10^7 MX-1 human breast carcinoma cells in 100 μl of PBS. Treatments were initiated when MX-1 tumors grew to a mean volume of 115 mm^3. The animals were randomly divided into 5 treatment groups, each having 6-7 animals per group. Animals were treated with D93 (i.v., 2×/week) and/or Taxol 100 μl volume (i.p. 2×/week), as outlined below. One control group of animals remained untreated, and another received PBS (vehicle) only. The animals were treated for 25 days.
Tumor size was measured every 7-20 days starting at first day-post randomization and continued until the end of the study. Measurements were recorded as (L×W^2)/2 where L is the length of the tumor or the largest diameter, and W is the width or shortest diameter. Animals were euthanized at the end of the study and final tumor measurements were recorded.

[2] = tested on: protease produced by HUVEC that unmasks the cryptic site in type-IV collagen; assay: Unmasking of HUIV26 cryptic site in collagen type-IV by HUVEC conditioned media; format: biochemical, human
Procedure: Microtiter plates were coated with extracellular matrix components, each at a concentration of 25 μg/ml. A). Mab HUIV26 was added at a concentration of 1 μg/ml, followed 1 hour later with goat anti-mouse peroxidase labeled IgG. Denatured collagen type-I and collagen type-IV were prepared by boiling for 15 minutes before coating the plates. All data were corrected for any non-specific binding of secondary antibody. Data bars represent the mean optical density (O.D.)±standard deviations from triplicate wells. B). Microtiter wells were coated with triple helical collagen type-IV at 25 μg/ml. Concentrated (20×) HUVEC conditioned media was added to the wells in the presence or absence of EDTA, aprotinin or both and allowed to incubate for 1, 6 and 24 hours. The plates were next washed, blocked and incubated with Mab HUIV26 or control antibody. All data were corrected for non-specific secondary antibody binding. Data bars represent the mean optical density (O.D.)±standard deviations from triplicate wells. The following abbreviations are used in the figure Coll-I, collagen type-I; Coll-IV, collagen type-IV.

[3] = Table IV, D93 or DP-28 100 μg i.v. 2×/week and/or Taxol 6 mg/kg i.p. 1×/week
[4] = Table IV, Taxol 3 mg/kg i.p. 1×/week alone or with D93 100 μg i.v. 2×/week
[5] = Table V, D93 or DP-28 100 μg i.v. 2×/week and/or Taxol 6 mg/kg i.p. 1×/week
[6] = Table V, Taxol 10 mg/kg i.p. 1×/week alone or with D93 100 μg i.v. 2×/week
[7] = Table VI, D93 100 μg i.v. 2×/week and/or Taxol 6 mg/kg i.p. 2×/week

CC(=O)O[C@H]1C(=O)[C@@]2(C)[C@H]([C@H](OC(=O)c3ccccc3)[C@]3(O)C[C@H](OC(=O)[C@H](O)[C@@H](NC(=O)c4ccccc4)c4ccccc4)C(C)=C1C3(C)C)[C@]1(OC(C)=O)CO[C@@H]1C[C@@H]2O [Taxol, paclitaxel]
inhibition of tumor volume compared to DP28 (MDA-MB-435 tumor cells; Example 21, D93 100 μg/dose twice per week and/or Taxol 6 mg/kg q.w.): 42% | inhibition of tumor growth compared to DP-28 (MDA-MB-435 tumor cells; Example 21, Taxol 3 mg/kg q.w. alone or plus D93 100 μg/dose twice per week): 6% | Tumor volume, Day 1 (MDA-MB-435 tumor cells; [3]): 78 mm^3 | Tumor volume, Day 8 (MDA-MB-435 tumor cells; [3]): 203 mm^3 | Tumor volume, Day 27 (MDA-MB-435 tumor cells; [3]): 315 mm^3 | Tumor volume, Day 34 (MDA-MB-435 tumor cells; [3]): 399 mm^3 | Tumor volume, Day 41 (MDA-MB-435 tumor cells; [3]): 530 mm^3 | Tumor volume, Day 48 (MDA-MB-435 tumor cells; [3]): 688 mm^3 | Tumor volume, Day 54 (MDA-MB-435 tumor cells; [3]): 793 mm^3 | Tumor volume, Day 55 (MDA-MB-435 tumor cells; [3]): 787 mm^3 | Tumor volume, Day 1 (MDA-MB-435 tumor cells; [4]): 78 mm^3 | Tumor volume, Day 8 (MDA-MB-435 tumor cells; [4]): 257 mm^3 | Tumor volume, Day 27 (MDA-MB-435 tumor cells; [4]): 361 mm^3 | Tumor volume, Day 34 (MDA-MB-435 tumor cells; [4]): 476 mm^3 | Tumor volume, Day 41 (MDA-MB-435 tumor cells; [4]): 604 mm^3 | Tumor volume, Day 48 (MDA-MB-435 tumor cells; [4]): 815 mm^3 | Tumor volume, Day 54 (MDA-MB-435 tumor cells; [4]): 1034 mm^3 | Tumor volume, Day 55 (MDA-MB-435 tumor cells; [4]): 1275 mm^3 | Tumor volume, Day 1 (MDA-MB-435 tumor cells; [5]): 58.55 mm^3 | Tumor volume, Day 21 (MDA-MB-435 tumor cells; [5]): 210.6 mm^3 | Tumor volume, Day 32 (MDA-MB-435 tumor cells; [5]): 392.04 mm^3 | Tumor volume, Day 39 (MDA-MB-435 tumor cells; [5]): 559.9 mm^3 | Tumor volume, Day 45 (MDA-MB-435 tumor cells; [5]): 771 mm^3 | Tumor volume, Day 51 (MDA-MB-435 tumor cells; [5]): 866 mm^3 | Tumor volume, Day 1 (MDA-MB-435 tumor cells; [6]): 58.6 mm^3 | Tumor volume, Day 21 (MDA-MB-435 tumor cells; [6]): 196.5 mm^3 | Tumor volume, Day 32 (MDA-MB-435 tumor cells; [6]): 361.56 mm^3 | Tumor volume, Day 39 (MDA-MB-435 tumor cells; [6]): 487.05 mm^3 | Tumor volume, Day 45 (MDA-MB-435 tumor cells; [6]): 672 mm^3 | Tumor volume, Day 51 (MDA-MB-435 tumor cells; [6]): 820 mm^3 | effect on tumor growth ([1]; FIG. 39, D93 100 μg and/or Taxol 6 mg/kg, 25 days): inhibit tumor growth | Tumor volume, Day 1 [1, 7]: 119 mm^3 | Tumor volume, Day 5 [1, 7]: 224.19 mm^3 | Tumor volume, Day 12 [1, 7]: 602 mm^3 | Tumor volume, Day 19 [1, 7]: 761.89 mm^3 | Tumor volume, Day 26 [1, 7]: 1196 mm^3

O=C(O)CN(CCN(CC(=O)O)CC(=O)O)CC(=O)O [EDTA]
effect on the HUVEC protease that unmasks the cryptic site in type-IV collagen ([2]; FIG. 11B): inhibited

aprotinin
block of Mab HUIV26 reactivity observed in the absence of protease inhibitor ([2]; 6 hour time point): 40% | block of Mab HUIV26 reactivity observed in the absence of protease inhibitor ([2]; 24 hour time point): 70% | effect on unmasking of cryptic site(s) in type-IV collagen ([2]; one hour of incubation with HUVEC conditioned media): little effect
